This passage reports IC50 results from US9796704B2, “Substituted quinazolines as receptor-type kinase inhibitors” (Symphony Evolution, Inc., priority 2002, dated 2017).

In one assay the target is EphA2 (Homo sapiens (Human), UniProt P29317). In words: EphA2 kinase inhibition, luciferase-coupled chemiluminescent assay (LCCA). Particulars: read-out: EphA2 IC50.
For another assay, the target named is EphB4 (Homo sapiens (Human), UniProt P54760). In words: EphB4 kinase inhibition, 33P phosphoryl transfer assay (radiometric). The format is biochemical.
Chain of EphB4 (P54760 605-890): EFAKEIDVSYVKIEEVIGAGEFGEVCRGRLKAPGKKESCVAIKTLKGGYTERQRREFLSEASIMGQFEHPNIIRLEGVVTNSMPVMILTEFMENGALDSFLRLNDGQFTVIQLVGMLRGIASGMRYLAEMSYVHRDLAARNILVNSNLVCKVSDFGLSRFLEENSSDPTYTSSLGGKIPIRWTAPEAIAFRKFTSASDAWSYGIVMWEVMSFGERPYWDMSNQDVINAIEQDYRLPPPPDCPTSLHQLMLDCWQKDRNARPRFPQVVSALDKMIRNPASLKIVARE
Another assay has as its target EGFR (Homo sapiens (Human), UniProt P00533). In words: EGFR kinase inhibition, luciferase-coupled chemiluminescent assay (LCCA). To be noted: read-out: EGFR IC50.
A further assay has as its target ErbB2 (Homo sapiens (Human), UniProt P04626). In words: ErbB2 kinase inhibition, AlphaScreen. The assay is classed as biochemical. As to the method: Kinase activity and compound inhibition are investigated using one or more of the three assay formats described below. The ATP concentrations are selected near its Michaelis-Menten constant (KM) for each individual kinase. Dose-response experiments are performed at ten different inhibitor concentrations in a 384-well plate format. […] These parameters are obtained by nonlinear regression algorithm built into ActivityBase software (available from ID Business Solutions Ltd., of Guildford, Surrey, UK). ^33P Phosphoryl Transfer Assay (Radiometric)
A general note: In Alpha technology, singlet oxygen from a donor bead excites a nearby acceptor bead.

A further assay deals with KDR (Homo sapiens (Human), UniProt P35968). In words: KDR kinase inhibition, luciferase-coupled chemiluminescent assay (LCCA). To be noted: read-out: KDR IC50.
Chain of KDR (P35968 807-1356): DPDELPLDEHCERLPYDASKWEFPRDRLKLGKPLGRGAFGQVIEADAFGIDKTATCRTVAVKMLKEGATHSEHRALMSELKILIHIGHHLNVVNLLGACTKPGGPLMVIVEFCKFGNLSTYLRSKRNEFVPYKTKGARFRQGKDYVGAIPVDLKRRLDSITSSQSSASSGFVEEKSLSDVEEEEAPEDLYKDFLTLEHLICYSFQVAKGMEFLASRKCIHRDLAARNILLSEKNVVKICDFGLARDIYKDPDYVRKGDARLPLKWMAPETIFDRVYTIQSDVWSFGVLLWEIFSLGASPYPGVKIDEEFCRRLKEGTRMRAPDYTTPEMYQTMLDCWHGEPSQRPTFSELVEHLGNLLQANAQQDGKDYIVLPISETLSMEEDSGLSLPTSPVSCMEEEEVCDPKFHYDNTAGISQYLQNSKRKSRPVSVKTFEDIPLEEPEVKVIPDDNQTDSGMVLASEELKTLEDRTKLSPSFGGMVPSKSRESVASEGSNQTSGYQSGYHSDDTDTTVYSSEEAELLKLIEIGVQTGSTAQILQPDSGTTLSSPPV

Broadly, the IC50 is the concentration at which inhibition is half-maximal.

Chain of EphA2 (P29317 598-890): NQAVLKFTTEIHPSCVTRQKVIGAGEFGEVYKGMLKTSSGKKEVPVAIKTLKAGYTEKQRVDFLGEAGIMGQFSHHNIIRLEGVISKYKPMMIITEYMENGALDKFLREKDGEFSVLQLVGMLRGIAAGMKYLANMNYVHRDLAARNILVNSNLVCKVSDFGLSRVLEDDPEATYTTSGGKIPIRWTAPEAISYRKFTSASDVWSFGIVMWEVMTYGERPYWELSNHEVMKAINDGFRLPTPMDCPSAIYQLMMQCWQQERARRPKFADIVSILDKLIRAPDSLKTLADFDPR
Protocol for EphA2: (§1) Kinase activity and compound inhibition are investigated using one or more of the three assay formats described below. The ATP concentrations are selected near its Michaelis-Menten constant (KM) for each individual kinase. Dose-response experiments are performed at ten different inhibitor concentrations in a 384-well plate format. […] Typically H is close to unity.
(§2) In the LCCA assays, kinase activity is measured by the ATP consumption that is accurately measured by luciferase-coupled chemiluminescence. Greiner 384-well white clear bottom medium binding plates are used for LCCA. Briefly the kinase reaction is initiated by mixing compounds, ATP and kinases in a 20 μL volume. At the end of the kinase reaction, a 20 μL luciferase-luciferin mix is added and the chemiluminescent signal is read on a Wallac Victor^2 reader.
Protocol for KDR: as §1, §2

`COc1cc2c(Nc3ccc(Cl)c(Cl)c3)ncnc2cc1OCc1csc([C@@H]2CCCN2)n1` [Example 244, N-(3,4-dichlorophenyl)-6-(methyloxy)-7-[({2-[(2S)-pyrrolidin-2-yl]-1,3-thiazol-4-yl}methyl)oxy]quinazolin-4-amine]: the IC50 at EphA2, on EphB4, at EGFR, against ErbB2 and at KDR was below 50 nM each time.

Take `COc1cc2c(Nc3ccc(Cl)c(Cl)c3)ncnc2cc1OCC1CCC1` [Example 187, 7-[(cyclobutylmethyl)oxy]-N-(3,4-dichlorophenyl)-6-(methyloxy)quinazolin-4-amine]: the IC50 at EphA2 was 50 to 1000 nM; against EphB4, below 50 nM; on EGFR, below 50 nM; at ErbB2 it was below 50 nM.

As to `COc1cc2c(Nc3ccc(Cl)c(Cl)c3)ncnc2cc1OCCN1C(=O)c2ccccc2C1=O` [Example 193, 2-(2-{[4-[(3,4-dichlorophenyl)amino]-6-(methyloxy)quinazolin-7-yl]oxy}ethyl)-1H-isoindole-1,3(2H)-dione], the IC50 on EphA2 was 50 to 1000 nM; against EphB4 it was below 50 nM; at EGFR, below 50 nM; against ErbB2, below 50 nM; at KDR, below 50 nM.

For `COc1cc2c(Nc3ccc(Cl)c(Cl)c3)ncnc2cc1OCc1nc(-c2ccc(N3CCCC3)cc2)cs1` [Example 198, N-(3,4-dichlorophenyl)-6-(methyloxy)-7-({[4-(4-pyrrolidin-1-ylphenyl)-1,3-thiazol-2-yl]methyl}oxy)quinazolin-4-amine], the IC50 on EphA2, against EphB4, on EGFR, at ErbB2 and at KDR was below 50 nM in each case.

As for `COc1cc2c(Nc3ccc(Cl)c(Cl)c3)ncnc2cc1OCc1csc(N2CCOCC2)n1` [Example 204, N-(3,4-dichlorophenyl)-6-(methyloxy)-7-{[(2-morpholin-4-yl-1,3-thiazol-4-yl)methyl]oxy}quinazolin-4-amine], the half-inhibitory concentration (IC50) on EphA2, on EphB4, at EGFR, at ErbB2 and at KDR was below 50 nM throughout.

`COc1cc2c(Nc3ccc(Cl)c(Cl)c3)ncnc2cc1OCc1nc(N2CCN(C(=O)OC(C)(C)C)CC2)no1` [Example 215, 1,1-dimethylethyl 4-[5-({[4-[(3,4-dichlorophenyl)amino]-6-(methyloxy)quinazolin-7-yl]oxy}methyl)-1,2,4-oxadiazol-3-yl]piperazine-1-carboxylate]: the IC50 on EphA2 is 50 to 1000 nM; at EphB4, below 50 nM; on EGFR, below 50 nM; against ErbB2, below 50 nM.

Regarding `COc1cc2c(Nc3ccc(Cl)c(Cl)c3)ncnc2cc1OCc1csc(COC(=O)c2ccccc2)n1` [Example 245, [4-({[4-[(3,4-dichlorophenyl)amino]-6-(methyloxy)quinazolin-7-yl]oxy}methyl)-1,3-thiazol-2-yl]methyl benzoate], the IC50 at EphA2, against EphB4, at EGFR, at ErbB2 and at KDR was below 50 nM in each case.

On to `COc1cc2c(Nc3ccc(Br)c(Cl)c3)ncnc2cc1O[C@H]1CO[C@@H]2CCO[C@H]12` [Example 77, 1,4:3,6-dianhydro-2-O-[4-[(4-bromo-3-chlorophenyl)amino]-6-(methyloxy)quinazolin-7-yl]-5-deoxy-D-xylo-hexitol], for which the IC50 was 50 to 1000 nM on EphA2, below 50 nM against EphB4, below 50 nM on EGFR and below 50 nM on ErbB2.

With `COc1cc2c(Nc3ccc(Cl)c(Cl)c3)ncnc2cc1OCc1noc(C2CCCCN2C)n1` (centres unmarked) [Example 154, N-(3,4-dichlorophenyl)-6-(methyloxy)-7-({[5-(1-methylpiperidin-2-yl)-1,2,4-oxadiazol-3-yl]methyl}oxy)quinazolin-4-amine], the IC50 on EphB4, on EGFR and at ErbB2 was below 50 nM each time.

On to `COc1cc2c(Nc3ccc(Cl)c(Cl)c3)ncnc2cc1OCc1cc(C)on1` [Example 160, N-(3,4-dichlorophenyl)-7-{[(5-methylisoxazol-3-yl)methyl]oxy}-6-(methyloxy)quinazolin-4-amine], for which the concentration for half-maximal inhibition (IC50) at EphB4, on EGFR and against ErbB2 was below 50 nM in each case.

On to `COc1cc2c(Nc3ccc(Cl)c(Cl)c3)ncnc2cc1OCc1nc(-c2ccccn2)cs1` [Example 202, N-(3,4-dichlorophenyl)-6-(methyloxy)-7-{[(4-pyridin-2-yl-1,3-thiazol-2-yl)methyl]oxy}quinazolin-4-amine], for which the IC50 on EphA2 is 50 to 1000 nM; against EphB4, below 50 nM; on EGFR, below 50 nM; on ErbB2, below 50 nM.

`COc1cc2c(Nc3ccc(Cl)c(Cl)c3)ncnc2cc1OCc1ccc2nonc2c1` [Example 163, 7-[(2,1,3-benzoxadiazol-5-ylmethyl)oxy]-N-(3,4-dichlorophenyl)-6-(methyloxy)quinazolin-4-amine]: the 50% inhibitory concentration (IC50) against EphB4, at EGFR and against ErbB2 was below 50 nM in each case.

For the compound `COc1cc2c(Nc3ccc(Cl)c(Cl)c3)ncnc2cc1OCC1CCCO1` (centres unmarked) [Example 183, N-(3,4-dichlorophenyl)-6-(methyloxy)-7-[(tetrahydrofuran-2-ylmethyl)oxy]quinazolin-4-amine], the half-maximal inhibitory concentration (IC50) on EphA2 is 50 to 1000 nM; against EphB4, below 50 nM; at EGFR it was below 50 nM; against ErbB2, below 50 nM.

Consider `COc1cc2c(Nc3ccc(Cl)c(Cl)c3)ncnc2cc1OCc1nc(CN2CCN(C)CC2)cs1` [Example 207, N-(3,4-dichlorophenyl)-6-(methyloxy)-7-[({4-[(4-methylpiperazin-1-yl)methyl]-1,3-thiazol-2-yl}methyl)oxy]quinazolin-4-amine], for which the IC50 is 50 to 1000 nM at EphA2, below 50 nM against EphB4, below 50 nM on EGFR and below 50 nM at ErbB2.

For the compound `COc1cc2c(Nc3ccc(Cl)c(Cl)c3)ncnc2cc1OCc1noc(-c2ccc(C(F)(F)F)cc2)n1` [Example 167, N-(3,4-dichlorophenyl)-6-(methyloxy)-7-[({5-[4-(trifluoromethyl)phenyl]-1,2,4-oxadiazol-3-yl}methyl)oxy]quinazolin-4-amine], the half-maximal inhibitory concentration (IC50) at EphA2, on EphB4, on EGFR and on ErbB2 was below 50 nM in each case.

Regarding “N-(3,4-dichlorophenyl)-7-({[2-(1-ethylpiperidin-4-yl)-1,3-thiazol-4-yl]methyl}oxy)-6-(methyloxy)quinazolin-4-amine hydrochloride [Example 37]”, the IC50 on EphA2 is below 50 nM; against EphB4 it was 50 to 1000 nM; on EGFR, below 50 nM; against ErbB2, below 50 nM.

In the case of `COc1cc2c(Nc3ccc(Br)cc3F)ncnc2cc1O[C@@H]1CO[C@@H]2[C@H]1OC[C@H]2F` [Example 108, 1,4:3,6-dianhydro-5-O-[4-[(4-bromo-2-fluorophenyl)amino]-6-(methyloxy)quinazolin-7-yl]-2-deoxy-2-fluoro-D-iditol], the concentration for half-maximal inhibition (IC50) on EphA2, at EphB4, on EGFR and on KDR was below 50 nM each time.

Regarding `COc1cc2c(Nc3ccc(Br)c(Cl)c3)ncnc2cc1O[C@H]1CO[C@@H]2[C@@H](OC)[C@H](OC)O[C@@H]21` [Example 79, methyl 3,6-anhydro-5-O-[4-[(4-bromo-3-chlorophenyl)amino]-6-(methyloxy)quinazolin-7-yl]-2-O-methyl-alpha-L-idofuranoside], the IC50 at EphA2, on EphB4, on EGFR and at KDR was below 50 nM throughout.

With `COc1cc2c(Nc3ccc(Br)c(Cl)c3)ncnc2cc1O[C@H]1CO[C@H]2[C@@H]1OC[C@@H]2OC(F)F` [Example 70, 1,4:3,6-dianhydro-2-O-[4-[(4-bromo-3-chlorophenyl)amino]-6-(methyloxy)quinazolin-7-yl]-5-O-(difluoromethyl)-L-iditol], the half-maximal inhibitory concentration (IC50) at EphA2 was 50 to 1000 nM; at EphB4 it was 50 to 1000 nM; at EGFR, below 50 nM; at KDR, below 50 nM.

Consider `COc1cc2c(Nc3ccc(Cl)c(Cl)c3)ncnc2cc1OCc1c(-c2ccccc2)nn(C)c1Cl` [Example 175, 7-{[(5-chloro-1-methyl-3-phenyl-1H-pyrazol-4-yl)methyl]oxy}-N-(3,4-dichlorophenyl)-6-(methyloxy)quinazolin-4-amine], for which the IC50 against EphB4, on EGFR and on ErbB2 was below 50 nM each time.

`COc1cc2c(Nc3ccc(Cl)c(Cl)c3Cl)ncnc2cc1O[C@@H]1CO[C@@H]2[C@H]1OC[C@H]2F` [Example 106, 1,4:3,6-dianhydro-2-deoxy-2-fluoro-5-O-{6-(methyloxy)-4-[(2,3,4-trichlorophenyl)amino]quinazolin-7-yl}-D-iditol]: the IC50 on EphA2, against EphB4, at EGFR and at KDR was below 50 nM in each case.

For `COc1cc2c(Nc3ccc(Cl)c(Cl)c3)ncnc2cc1OCc1cscn1` [Example 170, N-(3,4-dichlorophenyl)-6-(methyloxy)-7-[(1,3-thiazol-4-ylmethyl)oxy]quinazolin-4-amine], the half-maximal inhibitory concentration (IC50) on EphA2, on EphB4, at EGFR and at ErbB2 was below 50 nM each time.
